What was measured:
Format in all cases: cell-based
human TLR7 = biological target: T1, human TLR7 (Homo sapiens, UniProt Q9NYK1); experiment: TLR7 inhibition reporter assay (HEK-Blue SEAP); settings: HEK-Blue cells overexpressing human TLR7, stimulated with gardiquimod 7.5 μM, 22 hour incubation
T1 construct: host or cells: HEK-Blue cells
T1 sequence (Q9NYK1 27-1049): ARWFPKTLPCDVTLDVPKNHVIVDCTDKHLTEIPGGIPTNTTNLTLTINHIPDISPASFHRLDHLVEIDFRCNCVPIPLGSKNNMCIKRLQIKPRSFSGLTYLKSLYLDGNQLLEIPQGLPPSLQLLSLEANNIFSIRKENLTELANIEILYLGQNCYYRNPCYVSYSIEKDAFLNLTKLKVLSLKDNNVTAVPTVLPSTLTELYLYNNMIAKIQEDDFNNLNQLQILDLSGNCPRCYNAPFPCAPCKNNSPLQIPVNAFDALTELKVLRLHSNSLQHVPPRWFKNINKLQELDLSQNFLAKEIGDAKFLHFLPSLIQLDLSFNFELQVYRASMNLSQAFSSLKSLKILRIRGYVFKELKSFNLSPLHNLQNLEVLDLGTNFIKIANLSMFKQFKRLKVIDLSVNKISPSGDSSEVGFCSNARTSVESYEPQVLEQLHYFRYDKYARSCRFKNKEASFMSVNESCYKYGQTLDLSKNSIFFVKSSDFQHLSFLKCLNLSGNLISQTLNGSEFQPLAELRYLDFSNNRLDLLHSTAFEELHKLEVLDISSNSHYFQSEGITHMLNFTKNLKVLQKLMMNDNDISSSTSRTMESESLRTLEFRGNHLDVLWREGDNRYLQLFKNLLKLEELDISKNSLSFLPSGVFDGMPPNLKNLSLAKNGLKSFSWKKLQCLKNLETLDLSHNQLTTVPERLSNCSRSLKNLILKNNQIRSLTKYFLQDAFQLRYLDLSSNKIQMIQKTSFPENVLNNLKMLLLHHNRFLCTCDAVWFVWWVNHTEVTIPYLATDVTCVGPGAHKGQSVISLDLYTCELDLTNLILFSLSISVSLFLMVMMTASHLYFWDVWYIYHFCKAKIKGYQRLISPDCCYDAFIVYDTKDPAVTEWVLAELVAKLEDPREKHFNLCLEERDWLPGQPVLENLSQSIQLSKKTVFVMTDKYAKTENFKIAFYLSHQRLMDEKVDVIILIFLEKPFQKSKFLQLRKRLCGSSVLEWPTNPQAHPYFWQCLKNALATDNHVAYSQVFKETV
In short: (§1)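 SEAP read-out via HEK-Blue Detection medium after 22 h at 37 °C; percent inhibition relative to agonist-plus-DMSO and known-inhibitor wells. Agonists: TLR7 gardiquimod 7.5 μM, TLR8 R848 15.9 μM, TLR9 ODN2006 5 nM. Dose range 0.05 nM–50 μM, 30 min compound pre-treatment at RT.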

human TLR9 = biological target: T2, human TLR9 (Homo sapiens, UniProt Q9NR96); experiment: TLR9 inhibition reporter assay (HEK-Blue SEAP); settings: HEK-Blue cells overexpressing human TLR9, stimulated with ODN2006 5 nM, 22 hour incubation
T2 construct: host or cells: HEK-Blue cells
T2 sequence (Q9NR96 26-1032): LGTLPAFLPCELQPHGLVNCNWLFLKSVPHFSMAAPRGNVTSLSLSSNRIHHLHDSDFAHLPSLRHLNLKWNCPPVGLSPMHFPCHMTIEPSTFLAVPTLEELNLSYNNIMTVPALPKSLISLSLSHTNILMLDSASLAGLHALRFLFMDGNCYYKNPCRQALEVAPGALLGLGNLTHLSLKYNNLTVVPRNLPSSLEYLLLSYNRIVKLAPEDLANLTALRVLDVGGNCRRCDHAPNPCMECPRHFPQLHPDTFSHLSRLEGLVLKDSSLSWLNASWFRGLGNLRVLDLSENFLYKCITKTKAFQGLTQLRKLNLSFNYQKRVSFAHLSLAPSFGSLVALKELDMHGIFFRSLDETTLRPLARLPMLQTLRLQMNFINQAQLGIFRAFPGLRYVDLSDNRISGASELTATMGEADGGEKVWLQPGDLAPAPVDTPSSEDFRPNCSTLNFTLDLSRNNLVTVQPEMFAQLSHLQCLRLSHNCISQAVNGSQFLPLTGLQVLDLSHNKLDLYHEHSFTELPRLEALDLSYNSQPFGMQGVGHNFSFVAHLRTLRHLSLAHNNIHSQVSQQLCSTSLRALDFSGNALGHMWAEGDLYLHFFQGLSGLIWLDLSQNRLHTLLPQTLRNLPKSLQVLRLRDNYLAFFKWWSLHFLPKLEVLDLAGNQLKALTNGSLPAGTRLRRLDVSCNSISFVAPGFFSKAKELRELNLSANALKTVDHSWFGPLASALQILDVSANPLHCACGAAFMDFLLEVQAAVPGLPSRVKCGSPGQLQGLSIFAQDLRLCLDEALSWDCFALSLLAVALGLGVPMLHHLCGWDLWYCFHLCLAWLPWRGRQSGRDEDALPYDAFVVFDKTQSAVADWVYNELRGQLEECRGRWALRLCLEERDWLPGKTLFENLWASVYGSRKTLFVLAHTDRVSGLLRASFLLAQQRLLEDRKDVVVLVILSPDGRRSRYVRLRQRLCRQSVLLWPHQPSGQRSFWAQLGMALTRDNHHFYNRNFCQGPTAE
In short: as §1

human TLR8 = biological target: T3, human TLR8 (Homo sapiens, UniProt Q9NR97); experiment: TLR8 inhibition reporter assay (HEK-Blue SEAP); settings: HEK-Blue cells overexpressing human TLR8, stimulated with R848 15.9 μM, 22 hour incubation
T3 construct: host or cells: HEK-Blue cells
T3 sequence (Q9NR97 27-1041): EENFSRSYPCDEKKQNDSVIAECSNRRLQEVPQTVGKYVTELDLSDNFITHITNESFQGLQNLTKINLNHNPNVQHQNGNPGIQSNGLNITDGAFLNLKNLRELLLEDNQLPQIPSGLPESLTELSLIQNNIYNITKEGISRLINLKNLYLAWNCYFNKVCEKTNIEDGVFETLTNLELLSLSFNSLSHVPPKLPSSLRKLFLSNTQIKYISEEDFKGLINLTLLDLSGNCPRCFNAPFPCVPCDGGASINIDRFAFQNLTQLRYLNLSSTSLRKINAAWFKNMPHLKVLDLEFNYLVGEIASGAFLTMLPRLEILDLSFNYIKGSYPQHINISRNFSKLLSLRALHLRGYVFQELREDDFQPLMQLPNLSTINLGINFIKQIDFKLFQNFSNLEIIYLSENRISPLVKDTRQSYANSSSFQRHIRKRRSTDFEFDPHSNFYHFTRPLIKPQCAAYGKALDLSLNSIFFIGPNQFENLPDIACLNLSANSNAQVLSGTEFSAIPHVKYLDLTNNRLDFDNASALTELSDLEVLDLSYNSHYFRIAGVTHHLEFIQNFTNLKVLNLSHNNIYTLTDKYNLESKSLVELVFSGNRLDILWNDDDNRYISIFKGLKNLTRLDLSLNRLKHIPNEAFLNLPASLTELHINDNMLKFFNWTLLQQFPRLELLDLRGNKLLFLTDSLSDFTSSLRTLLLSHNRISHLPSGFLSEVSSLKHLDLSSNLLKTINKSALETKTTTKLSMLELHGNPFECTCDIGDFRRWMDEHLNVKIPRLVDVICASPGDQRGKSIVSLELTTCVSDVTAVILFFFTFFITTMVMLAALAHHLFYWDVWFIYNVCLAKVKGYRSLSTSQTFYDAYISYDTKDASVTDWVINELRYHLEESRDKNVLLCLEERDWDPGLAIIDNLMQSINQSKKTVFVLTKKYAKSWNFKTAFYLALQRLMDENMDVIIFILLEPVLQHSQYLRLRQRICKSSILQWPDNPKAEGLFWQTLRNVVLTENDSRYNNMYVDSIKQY
In short: as §1

SMILES | IC50 (human TLR7) [nM] | IC50 (human TLR9) [µM] | IC50 (human TLR8) [nM]
Cc1cc(-c2[nH]c3ccc(OCC(=O)NCC(C)(C)O)cc3c2C(C)C)ccn1 [Example 151, N-(2-hydroxy-2-methylpropyl)-2-((3-isopropyl-2-(2-methylpyridin-4-yl)-1H-indol-5-yl)oxy)acetamide] | 404 | > 50 | 561
COc1ccc(-c2[nH]c3ccc(OCCN4CCOCC4)cc3c2C(C)C)cc1OC [Example 173, 4-(2-((2-(3,4-dimethoxyphenyl)-3-isopropyl-1H-indol-5-yl)oxy)ethyl)morpholine] | 682 | 5.05 | 63.3
Cc1cc(-c2[nH]c3ccc(O[C@H]4CCCN(C(=O)CN(C)C)C4)cc3c2C(C)C)cn(C)c1=O [Example 98, (S)-5-(5-((1-(dimethylglycyl)piperidin-3-yl)oxy)-3-isopropyl-1H-indol-2-yl)-1,3-dimethylpyridin-2(1H)-one] | 7.6 | 11.1 | 16.5
Cc1cc(-c2[nH]c3ccc(OC4CCN(C)CC4)cc3c2C(C)C)cn2ncnc12 [Example 32, 6-(3-isopropyl-5-((1-methylpiperidin-4-yl)oxy)-1H-indol-2-yl)-8-methyl-[1,2,4]triazolo[1,5-a]pyridine] | 0.9 | 1.62 | 1
Cc1cc(-c2[nH]c3ccc(OC4CCN(CC(=O)N(C)C)CC4)cc3c2C(C)C)cn2ncnc12 [Example 85, 2-(4-((3-isopropyl-2-(8-methyl-[1,2,4]triazolo[1,5-a]pyridin-6-yl)-1H-indol-5-yl)oxy)piperidin-1-yl)-N,N-dimethylacetamide] | 2.1 | 1.35 | 2.9
Cc1cc(-c2[nH]c3ccc(OCCN4CCCC(F)C4)cc3c2C(C)C)cn2ncnc12 (stereo not drawn) [Example 4, 6-(5-(2-(3-fluoropiperidin-1-yl)ethoxy)-3-isopropyl-1H-indol-2-yl)-8-methyl-[1,2,4]triazolo[1,5-a]pyridine] | > 3130 | > 50 | 15.4

From patent US12030878B2 (BRISTOL-MYERS SQUIBB COMPANY, priority 2017, dated 2024)
